PubChem BioAssay (NCI)
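Five compound concentrations were applied to cells in 96-well plates for 48 hours; endpoints were derived by simple linear interpolation of the resulting dose-response curve. TGI denotes the concentration required for complete inhibition of growth.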

Key:
Assay in all cases: growth of human tumour cells (NCI), 48 h
786-0 renal = system: 786-0 renal
A498 renal = system: A498 renal
A549 NSCLC = system: A549 NSCLC
ACHN renal = system: ACHN renal
BT-549 breast = system: BT-549 breast
CAKI-1 renal = system: CAKI-1 renal
CCRF-CEM leukemia = system: CCRF-CEM leukemia
COLO 205 colon = system: COLO 205 colon
DU-145 prostate = system: DU-145 prostate
EKVX NSCLC = system: EKVX NSCLC
HCT-116 colon = system: HCT-116 colon
HCT-15 colon = system: HCT-15 colon
HL-60(TB) leukemia = system: HL-60(TB) leukemia
HOP-62 NSCLC = system: HOP-62 NSCLC
HS 578T breast = system: HS 578T breast
HT29 colon = system: HT29 colon
IGROV1 ovarian = system: IGROV1 ovarian
K-562 leukemia = system: K-562 leukemia
KM12 colon = system: KM12 colon
LOX IMVI melanoma = system: LOX IMVI melanoma
M14 melanoma = system: M14 melanoma
MCF7 breast = system: MCF7 breast
MDA-MB-231 breast = system: MDA-MB-231 breast
MDA-MB-435 = system: MDA-MB-435
MDA-N = system: MDA-N
MOLT-4 leukemia = system: MOLT-4 leukemia
NCI-H226 lung = system: NCI-H226 lung
NCI-H23 lung = system: NCI-H23 lung
NCI-H522 lung = system: NCI-H522 lung
NCI/ADR-RES ovarian = system: NCI/ADR-RES ovarian
OVCAR-3 ovarian = system: OVCAR-3 ovarian
OVCAR-4 ovarian = system: OVCAR-4 ovarian
OVCAR-5 ovarian = system: OVCAR-5 ovarian
OVCAR-8 ovarian = system: OVCAR-8 ovarian
PC-3 prostate = system: PC-3 prostate
RPMI-8226 leukemia = system: RPMI-8226 leukemia
SF-268 CNS = system: SF-268 CNS
SF-295 CNS = system: SF-295 CNS
SF-539 CNS = system: SF-539 CNS
SK-MEL-2 melanoma = system: SK-MEL-2 melanoma
SK-MEL-28 melanoma = system: SK-MEL-28 melanoma
SK-MEL-5 melanoma = system: SK-MEL-5 melanoma
SK-OV-3 ovarian = system: SK-OV-3 ovarian
SN12C renal = system: SN12C renal
SNB-19 CNS = system: SNB-19 CNS
SNB-75 CNS = system: SNB-75 CNS
SR leukemia = system: SR leukemia
SW-620 colon = system: SW-620 colon
T-47D breast = system: T-47D breast
TK-10 renal = system: TK-10 renal
U251 CNS = system: U251 CNS
UACC-257 melanoma = system: UACC-257 melanoma
UACC-62 melanoma = system: UACC-62 melanoma
UO-31 renal = system: UO-31 renal

## CCNCC(O)COc1ccc2c(c1)[n+]([O-])nc(N)[n+]2[O-] (centres undefined)
786-0 renal
  TGI: > 100 µM
A498 renal
  TGI: > 100 µM
A549 NSCLC
  TGI: > 100 µM
ACHN renal
  TGI: > 100 µM
BT-549 breast
  TGI: > 100 µM
CAKI-1 renal
  TGI: > 100 µM
CCRF-CEM leukemia
  TGI: > 100 µM
COLO 205 colon
  TGI: > 100 µM
DU-145 prostate
  TGI: > 100 µM
EKVX NSCLC
  TGI: > 100 µM
HCT-116 colon
  TGI: > 100 µM
HCT-15 colon
  TGI: > 100 µM
HL-60(TB) leukemia
  TGI: > 100 µM
HOP-62 NSCLC
  TGI: > 100 µM
HS 578T breast
  TGI: > 100 µM
HT29 colon
  TGI: > 100 µM
IGROV1 ovarian
  TGI: > 100 µM
K-562 leukemia
  TGI: > 100 µM
KM12 colon
  TGI: > 100 µM
LOX IMVI melanoma
  TGI: 27.3 µM
M14 melanoma
  TGI: > 100 µM
MCF7 breast
  TGI: > 100 µM
MDA-MB-231 breast
  TGI: > 100 µM
MDA-MB-435
  TGI: > 100 µM
MDA-N
  TGI: > 100 µM
MOLT-4 leukemia
  TGI: 56 µM
NCI-H226 lung
  TGI: > 100 µM
NCI-H23 lung
  TGI: > 100 µM
NCI-H522 lung
  TGI: 43.6 µM
NCI/ADR-RES ovarian
  TGI: > 100 µM
OVCAR-3 ovarian
  TGI: > 100 µM
OVCAR-4 ovarian
  TGI: > 100 µM
OVCAR-5 ovarian
  TGI: > 100 µM
OVCAR-8 ovarian
  TGI: > 100 µM
PC-3 prostate
  TGI: > 100 µM
RPMI-8226 leukemia
  TGI: > 100 µM
SF-268 CNS
  TGI: > 100 µM
SF-295 CNS
  TGI: > 100 µM
SF-539 CNS
  TGI: > 100 µM
SK-MEL-2 melanoma
  TGI: > 100 µM
SK-MEL-28 melanoma
  TGI: > 100 µM
SK-MEL-5 melanoma
  TGI: > 100 µM
SK-OV-3 ovarian
  TGI: 82.1 µM
SN12C renal
  TGI: > 100 µM
SNB-19 CNS
  TGI: > 100 µM
SNB-75 CNS
  TGI: > 100 µM
SR leukemia
  TGI: > 100 µM
SW-620 colon
  TGI: > 100 µM
T-47D breast
  TGI: > 100 µM
TK-10 renal
  TGI: > 100 µM
U251 CNS
  TGI: > 100 µM
UACC-257 melanoma
  TGI: > 100 µM
UACC-62 melanoma
  TGI: 69.8 µM
UO-31 renal
  TGI: > 100 µM
